Source: patent publication US10370343B2, “[6,6] Fused bicyclic HDAC8 inhibitors” (FORMA Therapeutics, Inc., priority 2015, dated 2019)
pIC50: −log10 of the molar value.

Target: T1, Full length human recombinant HDAC8 protein (Homo sapiens, UniProt Q9BY41)
T1 construct: Full length human recombinant HDAC8 protein was expressed in baculoviral system; made in house
T1 sequence (Q9BY41 1-377): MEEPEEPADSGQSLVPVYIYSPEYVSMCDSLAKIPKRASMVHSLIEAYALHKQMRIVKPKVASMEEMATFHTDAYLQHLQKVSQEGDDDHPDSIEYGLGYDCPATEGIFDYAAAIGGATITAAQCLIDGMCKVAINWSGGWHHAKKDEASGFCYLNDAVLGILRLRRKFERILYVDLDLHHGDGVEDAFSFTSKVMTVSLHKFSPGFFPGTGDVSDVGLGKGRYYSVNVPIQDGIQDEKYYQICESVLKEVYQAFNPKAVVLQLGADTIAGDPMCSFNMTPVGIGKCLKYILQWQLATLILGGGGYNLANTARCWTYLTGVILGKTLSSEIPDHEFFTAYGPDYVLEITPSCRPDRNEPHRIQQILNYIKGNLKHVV
Experiment: In vitro histone deacetylase assay: enzymatic HDAC8 electrophoretic mobility shift assay
Type: biochemical
Settings: electrophoretic mobility shift assay; enzyme 1 nM; 2 μM fluorescently labeled peptide substrate RHKK(Ac)-NH2; 25° C.; 12 concentrations; read-out: HDAC8 IC50
Method: The enzymatic HDAC8 assay was performed using electrophoretic mobility shift assay. Full length human recombinant HDAC8 protein was expressed in baculoviral system and purified by affinity chromatography. The enzymatic reactions were assembled in 384 well plates in a total volume of 25 μL in a reaction buffer composing: 100 mM HEPES, pH7.5, 25 mM KCl, 0.1% bovine serum albumin, 0.01% Triton X-100, 1% DMSO (from compounds) 2 μM of the fluorescently labeled peptide substrate and enzyme. The enzyme was added at a final concentration of 1 nM. The peptide substrate RHKK(Ac)—NH2 was used. The compounds were tested at 12 concentrations spaced by 3× dilution intervals. Negative control samples (0%-inhibition in the absence of inhibitor) and positive control samples (100%-inhibition) were assembled in replicates of four in each assay plate. The reactions were incubated at 25° C. and quenched by the addition of 45 μL of termination buffer (100 mM HEPES, pH 7.5, 0.01% Triton X-100, 0.05% SDS).
The terminated assay plates were analyzed on LabChip® 3000 microfluidic electrophoresis instrument (Perkin Elmer/Caliper Life Sciences). The fluorescence intensity of the electrophoretically separated de-acetylated product and substrate peptide was measured. Activity in each sample was determined as the product to sum ratio (PSR): P/(S+P), where P is the peak height of the product peptide and S is the peak height of the substrate peptide. Percent inhibition (Pinh) is determined using the following equation: Pinh=(PSR0%−PSRinh)/(PSR0%−PSR100%)*100, where PSRinh is the product sum ratio in the presence of inhibitor, PSR0% is the average product sum ration in the absence of inhibitor and PSR100% is the average product sum ratio in 100%-inhibition control samples. The IC50 values of inhibitors were determined by fitting the %-inhibition curves with 4 parameter dose-response model using XLfit 4 software.

| Structure (SMILES) | pIC50 |
| --- | --- |
| O=C(NO)c1ccc2c(c1)N(Cc1nc3ccccc3n1CC1CC1)CCO2 [Compound I-30, 4-((1-(cyclopropylmethyl)-1H-benzo[d]imidazol-2-yl)methyl)-N-hydroxy-3,4-dihydro-2H-benzo[b][1,4]oxazine-6-carboxamide] | 6.00 to 7.00 |
| O=C(NO)c1ccc2c(c1)N(S(=O)(=O)c1ccccc1)CCO2 [Compound I-86, N-hydroxy-4-(phenylsulfonyl)-3,4-dihydro-2H-benzo[b][1,4]oxazine-6-carboxamide] | 6.00 to 7.00 |
| CCCN1C(=O)COc2ccc(C(=O)NO)cc21 [Compound I-39, N-hydroxy-3-oxo-4-propyl-3,4-dihydro-2H-benzo[b][1,4]oxazine-6-carboxamide] | 6.00 to 7.00 |
| CS(=O)(=O)c1ccc(CN2CCOc3ccc(C(=O)NO)cc32)c(C(F)(F)F)c1 [Compound I-137, N-hydroxy-4-(4-(methylsulfonyl)-2-(trifluoromethyl)benzyl)-3,4-dihydro-2H-benzo[b][1,4]oxazine-6-carboxamide] | 7.00 to 7.60 |
| O=C(NO)c1ccc2c(c1)N(Cc1ccc(OC(F)(F)F)cc1)CCO2 [Compound I-19, N-hydroxy-4-(4-(trifluoromethoxy)benzyl)-3,4-dihydro-2H-benzo[b][1,4]oxazine-6-carboxamide] | 7.00 to 7.60 |
| COc1ccc(CN2CCOc3ccc(C(=O)NO)cc32)cc1 [Compound I-115, N-hydroxy-4-(4-methoxybenzyl)-3,4-dihydro-2H-benzo[b][1,4]oxazine-6-carboxamide] | 6.00 to 7.00 |
| CC(C)(C)c1ccc(CN2C(=O)COc3ccc(C(=O)NO)cc32)cc1 [Compound I-70, 4-(4-(tert-butyl)benzyl)-N-hydroxy-3-oxo-3,4-dihydro-2H-benzo[b][1,4]oxazine-6-carboxamide] | > 7.60 |
| COCCn1c(CN2CCOc3ccc(C(=O)NO)cc32)nc2ccccc21 [Compound I-29, N-hydroxy-4-((1-(2-methoxyethyl)-1H-benzo[d]imidazol-2-yl)methyl)-3,4-dihydro-2H-benzo[b][1,4]oxazine-6-carboxamide] | 6.00 to 7.00 |
| O=C(NO)c1ccc2c(c1)N(CC1CCOCC1)C(=O)CO2 [Compound I-48, N-hydroxy-3-oxo-4-((tetrahydro-2H-pyran-4-yl)methyl)-3,4-dihydro-2H-benzo[b][1,4]oxazine-6-carboxamide] | 6.00 to 7.00 |
| CCC(C)N1C(=O)COc2ccc(C(=O)NO)cc21 (stereo not drawn) [Compound I-46, 4-(sec-butyl)-N-hydroxy-3-oxo-3,4-dihydro-2H-benzo[b][1,4]oxazine-6-carboxamide] | 6.00 to 7.00 |
| O=C(NO)c1ccc2c(c1)OC(C(=O)N1CC3(CC3)c3ccccc31)CN2Cc1ccccc1 (stereo not drawn) [Compound I-10, 4-benzyl-N-hydroxy-2-(spiro[cyclopropane-1,3′-indoline]-1′-carbonyl)-3,4-dihydro-2H-benzo[b][1,4]oxazine-7-carboxamide] | 7.00 to 7.60 |
| O=C(NO)c1ccc2c(c1)N(c1nc3ccccc3[nH]1)CCC2 [Compound I-106, 1-(1H-benzo[d]imidazol-2-yl)-N-hydroxy-1,2,3,4-tetrahydroquinoline-7-carboxamide] | 6.00 to 7.00 |
| O=C(NO)c1ccc2c(c1)N(Cc1cccc(F)c1)CCO2 [Compound I-24, 4-(3-fluorobenzyl)-N-hydroxy-3,4-dihydro-2H-benzo[b][1,4]oxazine-6-carboxamide] | > 7.60 |
| CC(C)n1c(CN2CCOc3ccc(C(=O)NO)cc32)nc2ccccc21 [Compound I-28, N-hydroxy-4-((1-isopropyl-1H-benzo[d]imidazol-2-yl)methyl)-3,4-dihydro-2H-benzo[b][1,4]oxazine-6-carboxamide] | < 6.00 |
| Cc1ccc(C(F)(F)F)cc1CN1C(=O)COc2ccc(C(=O)NO)cc21 [Compound I-72, N-hydroxy-4-(2-methyl-5-(trifluoromethyl)benzyl)-3-oxo-3,4-dihydro-2H-benzo[b][1,4]oxazine-6-carboxamide] | > 7.60 |
